Here are results for 2 compounds from ChEMBL document CHEMBL1159334, “Agastinol and agastenol, novel lignans from Agastache rugosa and their evaluation in an apoptosis inhibition assay” (J Nat Prod, 2002).

This test concerns U-937. The test is described as follows: Inhibition of etoposide-induced caspase 3 induction in human U937 cells after 7 hrs. As to conditions: U-937, 7 h. The class given is functional, cell-based.

In brackets after ≈: the same amount, converted by molar mass.

For orientation: IC50 means the concentration that gives 50% inhibition. The low end stands for inhibition by little substance, the high end for a need for much substance. Compound `COc1cc(/C=C2/CO[C@@H](c3ccc(O)c(OC)c3)[C@@H]2COC(=O)c2ccc(O)cc2)ccc1O` [AGASTENOL] showed an IC50 of 11.4 µg/mL (≈ 23.8 µM).
The same measure for `COc1cc(C[C@@H]2CO[C@@H](c3ccc(O)c(OC)c3)[C@@H]2COC(=O)c2ccc(O)cc2)ccc1O` [AGASTINOL]: 15.2 µg/mL (≈ 31.6 µM).
